Measured values reported in patent publication US8598202B2, “Aryl-hydroxyethylamino-pyrimidines and triazines as modulators of fatty acid amide hydrolase” (Janssen Pharmaceutica NV, priority 2008, dated 2013).
Where a name gives a salt, the structure may show the parent alone. Read-outs that look alike come from different tables or passages of the source.

Experiments:
[1] = test system: acute thermal nociception; settings: rats; WO 02/087569; cited from earlier work
neuropathic pain = settings: rats; WO 02/087569; cited from earlier work
spasticity = settings: Baker 2001; cited from earlier work
nociception = settings: rat; Kathuria 2003; cited from earlier work
thermal nociception [2] = settings: rat; cited from earlier work
anxiety = settings: rats; Kathuria 2003; cited from earlier work
thermal nociception [3] = settings: rats; WO 04/033652; cited from earlier work
FAAH [4] = biological target: T1, FAAH (Homo sapiens, UniProt O00519); settings: reported; cited from earlier work
T1 sequence (O00519 1-579): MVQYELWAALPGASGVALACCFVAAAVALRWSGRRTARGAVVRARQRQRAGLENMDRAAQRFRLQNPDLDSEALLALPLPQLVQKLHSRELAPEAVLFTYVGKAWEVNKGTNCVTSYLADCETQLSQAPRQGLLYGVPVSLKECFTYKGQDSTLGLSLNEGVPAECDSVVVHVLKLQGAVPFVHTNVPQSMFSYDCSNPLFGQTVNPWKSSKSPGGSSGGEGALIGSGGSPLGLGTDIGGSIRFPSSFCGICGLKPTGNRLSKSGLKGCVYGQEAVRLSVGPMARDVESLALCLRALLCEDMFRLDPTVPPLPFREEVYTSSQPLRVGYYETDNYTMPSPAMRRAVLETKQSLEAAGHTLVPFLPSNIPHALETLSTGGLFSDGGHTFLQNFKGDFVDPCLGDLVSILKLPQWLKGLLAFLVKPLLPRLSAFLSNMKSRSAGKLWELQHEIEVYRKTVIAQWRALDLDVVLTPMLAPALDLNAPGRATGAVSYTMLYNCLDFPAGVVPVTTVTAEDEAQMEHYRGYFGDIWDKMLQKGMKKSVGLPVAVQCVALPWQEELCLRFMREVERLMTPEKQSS

Rat FAAH-1 = biological target: T2, Rat FAAH-1 (Rattus norvegicus, UniProt P97612); experiment: Assay Method 2: rat FAAH-1 assay, 3H-anandamide hydrolysis in homogenate of SK-N-MC cells transfected with rat FAAH
T2 sequence (P97612 1-579): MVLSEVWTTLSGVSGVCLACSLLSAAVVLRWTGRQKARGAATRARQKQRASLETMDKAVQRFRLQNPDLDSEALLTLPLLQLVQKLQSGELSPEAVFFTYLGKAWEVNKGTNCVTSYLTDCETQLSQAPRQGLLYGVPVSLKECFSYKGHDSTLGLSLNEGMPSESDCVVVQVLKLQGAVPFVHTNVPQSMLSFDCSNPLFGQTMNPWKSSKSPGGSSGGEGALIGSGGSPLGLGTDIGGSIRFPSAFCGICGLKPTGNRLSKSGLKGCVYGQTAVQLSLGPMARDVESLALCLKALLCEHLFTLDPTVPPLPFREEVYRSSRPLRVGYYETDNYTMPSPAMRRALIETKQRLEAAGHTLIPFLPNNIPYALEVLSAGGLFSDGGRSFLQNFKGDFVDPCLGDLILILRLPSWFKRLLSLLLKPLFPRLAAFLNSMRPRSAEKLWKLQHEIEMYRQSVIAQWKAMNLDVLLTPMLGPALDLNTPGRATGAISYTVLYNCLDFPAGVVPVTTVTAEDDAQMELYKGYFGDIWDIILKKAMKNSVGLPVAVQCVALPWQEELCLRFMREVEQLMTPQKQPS

FAAH [5] = biological target: T1, FAAH; experiment: Assay Method 1: FAAH assay, 3H-anandamide hydrolysis in homogenate of T84 cells or SK-N-MC cells transfected with human FAAH

| SMILES | IC50 (Rat FAAH-1) | IC50 (FAAH [5]) | also measured |
| --- | --- | --- | --- |
| Cc1nc(-c2ccccc2)c(-c2ccccc2)n1CCCCCCNC(=O)Oc1ccccc1F [BMS-1] | – | – | analgesic effect in Hargraves test [1]: analgesic effect; analgesic effect in Chung spinal nerve ligation model (neuropathic pain): analgesic effect |
| CCCCCCCCCCCCCCCCS(=O)(=O)F [AM374] | – | – | reduction of spasticity in CREAE mice (spasticity): significantly reduce spasticity |
| NC(=O)c1cccc(-c2cccc(OC(=O)NC3CCCCC3)c2)c1 [URB-597] | – | – | analgesic efficacy in formalin test (nociception): analgesic efficacy; analgesic efficacy/activity in hot plate test (thermal nociception [2]): analgesic efficacy; efficacy in zero plus maze model of anxiety (anxiety): efficacy |
| O=C(CCCCCCc1ccccc1)c1ncc(-c2ccccn2)o1 [OL-135] | – | – | analgesic activity in tail emersion test (thermal nociception [3]): analgesic activity; analgesic efficacy/activity in hot plate test (thermal nociception [2]): analgesic activity; inhibition of FAAH (FAAH [4]): potent inhibitor |
| O[C@@H](CNc1cc(-c2ccc(I)cc2)ncn1)c1ccccc1 [Example 142, (1R)-2-{[6-(4-Iodophenyl)pyrimidin-4-yl]amino}-1-phenylethanol] | 0.06 µM | 0.009 µM | – |
| O[C@@H](CNc1cc(-c2cc(F)c(F)c(F)c2)ncn1)c1ccccc1 [Example 54, (1R)-1-Phenyl-2-{[6-(3,4,5-trifluorophenyl)pyrimidin-4-yl]amino}ethanol trifluoroacetic acid salt] | 0.443 µM | 0.277 µM | – |
| O[C@@H](CNc1cc(-c2ccc(F)c(Cl)c2)ncn1)c1ccccc1 [Example 83, (1R)-2-{[6-(3-Chloro-4-fluorophenyl)pyrimidin-4-yl]amino}-1-Phenylethanol trifluoroacetic acid salt] | 0.654 µM | 0.21 µM | – |
| O[C@@H](CNc1cc(-c2ccc(Cl)c(Cl)c2)ncn1)c1ccccc1 [Example 95, (1R)-2-{[6-(3,4-Dichlorophenyl)-pyrimidin-4-yl]amino}-1-phenylethanol] | 0.066 µM | 0.018 µM | – |
| O=[N+]([O-])c1ccc(C(O)CNc2cc(-c3ccc(OC(F)(F)F)cc3)ncn2)cc1 (stereo not drawn) [Example 107, 1-(4-Nitrophenyl)-2-[(6-{4-[(trifluoromethyl)oxy]phenyl}pyrimidin-4-yl)amino]ethanol] | 0.32 µM | 0.24 µM | – |
| Cc1cc(-c2cc(NC[C@H](O)c3ccccc3)ncn2)ccc1Cl [Example 26, (1R)-2-{[6-(4-Chloro-3-methylphenyl)pyrimidin-4-yl]amino}-1-phenylethanol trifluoroacetic acid salt] | 0.163 µM | 0.052 µM | – |
| OC(CNc1cc(-c2c(F)cccc2F)ncn1)c1ccccc1 (stereo not drawn) [Example 237, 2-[6-(2,6-Difluoro-phenyl)-pyrimidin-4-ylamino]-1-phenyl-ethanol] | > 10 µM | > 10 µM | – |
| OC(CNc1cc(-c2ccc3ccccc3c2)ncn1)c1ccccc1 (stereo not drawn) [Example 235, 2-[(6-Naphthalen-2-ylpyrimidin-4-yl)amino]-1-phenylethanol] | 0.324 µM | 0.021 µM | – |
| O[C@@H](CNc1cc(-c2ccc(N3CCOCC3)nc2)ncn1)c1ccccc1 [Example 70, (1R)-2-{[6-(6-Morpholin-4-ylpyridin-3-yl)pyrimidin-4-yl]amino}-1-Phenylethanol] | > 10 µM | 0.8 µM | – |
| OC(CNc1cc(-c2c(F)cccc2F)ncn1)c1ccccc1 (stereo not drawn) [CE4, 2-[6-(2,6-Difluoro-phenyl)-pyrimidin-4-ylamino]-1-phenyl-ethanol, reference compound] | – | – | IC50 (Rat FAAH-1; read-out: Assay 2 IC50, Table 2, Comparative Examples, rat FAAH-1): > 10 µM; IC50 (FAAH [5]; read-out: Assay 1 IC50, Table 2, Comparative Examples, human FAAH): > 10 µM |
| OC(CNc1cc(-c2ccc(C(F)(F)F)c(Cl)c2)ncn1)c1ccc2c(c1)OCCCO2 (stereo not drawn) [Example 204, 2-({6-[3-Chloro-4-(trifluoromethyl)phenyl]pyrimidin-4-yl}amino)-1-(3,4-dihydro-2H-1,5-benzodioxepin-7-yl)ethanol] | 0.082 µM | 0.548 µM | – |
| OC(CNc1cc(-c2ccc(Cl)cc2)ncn1)c1ccccc1 (stereo not drawn) [Example 2, 2-{[6-(4-Chlorophenyl)pyrimidin-4-yl]amino}-1-phenylethanol] | 1.3 µM | 0.35 µM | – |
